The text below walks through data of publication PMC7252619 (PLoS ONE, 2020).

Assay in all cases: Kinase activity test (ReactionBiology), % enzyme activity relative to DMSO
What all share (format): biochemical

Test [1] addresses VEGFR2 (Homo sapiens, UniProt P35968). Details: purchased ReactionBiology. Conditions: VEGFR2.
Test [2] deals with T1, MAP2K2 (Homo sapiens, UniProt P36507).
T1 construct: purchased ReactionBiology
Conditions: MEK2.

In test [3] the target is T2, NEK2 (Homo sapiens, UniProt P51955).
T2 construct: purchased ReactionBiology
T2 sequence (P51955 1-445): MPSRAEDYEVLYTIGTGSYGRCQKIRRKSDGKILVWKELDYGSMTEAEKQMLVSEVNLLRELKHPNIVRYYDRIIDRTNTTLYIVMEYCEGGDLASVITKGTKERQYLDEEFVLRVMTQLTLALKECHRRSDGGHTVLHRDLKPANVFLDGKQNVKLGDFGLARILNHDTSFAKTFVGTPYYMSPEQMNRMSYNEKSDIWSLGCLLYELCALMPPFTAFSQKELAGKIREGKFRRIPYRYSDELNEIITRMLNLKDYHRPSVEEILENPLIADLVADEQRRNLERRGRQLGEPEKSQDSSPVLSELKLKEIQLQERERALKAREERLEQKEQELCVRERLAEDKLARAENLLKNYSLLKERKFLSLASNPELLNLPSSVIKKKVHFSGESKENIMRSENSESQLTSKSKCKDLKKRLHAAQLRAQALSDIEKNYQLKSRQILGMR
Particulars: NEK2.

The target of test [4] is T3, CDC7 (Homo sapiens, UniProt O00311).
T3 construct: purchased ReactionBiology
T3 sequence (O00311 whole entry): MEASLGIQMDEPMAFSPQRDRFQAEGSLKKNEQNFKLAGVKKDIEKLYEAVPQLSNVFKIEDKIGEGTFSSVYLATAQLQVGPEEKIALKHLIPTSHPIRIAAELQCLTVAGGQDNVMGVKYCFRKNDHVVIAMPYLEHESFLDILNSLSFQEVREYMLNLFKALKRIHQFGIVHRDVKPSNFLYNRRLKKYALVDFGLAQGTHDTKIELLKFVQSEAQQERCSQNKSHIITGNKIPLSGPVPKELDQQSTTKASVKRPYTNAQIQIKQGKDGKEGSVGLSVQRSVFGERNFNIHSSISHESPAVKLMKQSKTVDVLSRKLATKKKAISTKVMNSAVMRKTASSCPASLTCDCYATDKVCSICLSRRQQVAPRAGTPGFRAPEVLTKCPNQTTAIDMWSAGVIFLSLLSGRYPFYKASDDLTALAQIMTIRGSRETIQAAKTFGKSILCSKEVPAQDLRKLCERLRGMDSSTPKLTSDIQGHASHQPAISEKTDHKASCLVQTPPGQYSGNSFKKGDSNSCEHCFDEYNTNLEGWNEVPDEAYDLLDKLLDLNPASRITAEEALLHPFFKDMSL
T3 sequence (Q9UBU7 whole entry partner): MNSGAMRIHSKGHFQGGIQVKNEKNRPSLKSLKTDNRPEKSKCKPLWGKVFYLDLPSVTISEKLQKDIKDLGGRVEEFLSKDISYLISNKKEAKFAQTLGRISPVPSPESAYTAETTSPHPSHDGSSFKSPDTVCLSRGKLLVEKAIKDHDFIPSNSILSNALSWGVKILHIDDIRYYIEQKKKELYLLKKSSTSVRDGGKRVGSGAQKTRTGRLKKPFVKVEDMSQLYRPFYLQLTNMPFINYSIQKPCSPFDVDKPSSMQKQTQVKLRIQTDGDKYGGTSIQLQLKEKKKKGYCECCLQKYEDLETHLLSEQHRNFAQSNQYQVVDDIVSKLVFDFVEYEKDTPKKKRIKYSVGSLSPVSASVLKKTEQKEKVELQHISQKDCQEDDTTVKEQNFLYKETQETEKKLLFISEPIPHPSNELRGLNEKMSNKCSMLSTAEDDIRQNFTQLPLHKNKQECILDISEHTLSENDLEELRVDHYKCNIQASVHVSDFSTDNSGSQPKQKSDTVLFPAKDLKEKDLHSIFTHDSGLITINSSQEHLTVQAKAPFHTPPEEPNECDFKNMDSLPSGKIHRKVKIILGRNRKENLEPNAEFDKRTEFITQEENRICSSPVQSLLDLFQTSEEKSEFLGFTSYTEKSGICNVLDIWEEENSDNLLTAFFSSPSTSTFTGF
Conditions: CDC7; for % Enzyme Activity (relative to DMSO controls), Data 1: replicate Data 1; for % Enzyme Activity (relative to DMSO controls), Data 2: replicate Data 2.

Test [5] addresses T4, DAPK1 (Homo sapiens, UniProt P53355).
T4 construct: purchased ReactionBiology
Particulars: DAPK1; for % Enzyme Activity (relative to DMSO controls), Data 1: replicate Data 1; for % Enzyme Activity (relative to DMSO controls), Data 2: replicate Data 2.

Test [6] concerns the target T5, EPHB4 (Homo sapiens, UniProt P54760).
T5 construct: purchased ReactionBiology
T5 sequence (P54760 16-987): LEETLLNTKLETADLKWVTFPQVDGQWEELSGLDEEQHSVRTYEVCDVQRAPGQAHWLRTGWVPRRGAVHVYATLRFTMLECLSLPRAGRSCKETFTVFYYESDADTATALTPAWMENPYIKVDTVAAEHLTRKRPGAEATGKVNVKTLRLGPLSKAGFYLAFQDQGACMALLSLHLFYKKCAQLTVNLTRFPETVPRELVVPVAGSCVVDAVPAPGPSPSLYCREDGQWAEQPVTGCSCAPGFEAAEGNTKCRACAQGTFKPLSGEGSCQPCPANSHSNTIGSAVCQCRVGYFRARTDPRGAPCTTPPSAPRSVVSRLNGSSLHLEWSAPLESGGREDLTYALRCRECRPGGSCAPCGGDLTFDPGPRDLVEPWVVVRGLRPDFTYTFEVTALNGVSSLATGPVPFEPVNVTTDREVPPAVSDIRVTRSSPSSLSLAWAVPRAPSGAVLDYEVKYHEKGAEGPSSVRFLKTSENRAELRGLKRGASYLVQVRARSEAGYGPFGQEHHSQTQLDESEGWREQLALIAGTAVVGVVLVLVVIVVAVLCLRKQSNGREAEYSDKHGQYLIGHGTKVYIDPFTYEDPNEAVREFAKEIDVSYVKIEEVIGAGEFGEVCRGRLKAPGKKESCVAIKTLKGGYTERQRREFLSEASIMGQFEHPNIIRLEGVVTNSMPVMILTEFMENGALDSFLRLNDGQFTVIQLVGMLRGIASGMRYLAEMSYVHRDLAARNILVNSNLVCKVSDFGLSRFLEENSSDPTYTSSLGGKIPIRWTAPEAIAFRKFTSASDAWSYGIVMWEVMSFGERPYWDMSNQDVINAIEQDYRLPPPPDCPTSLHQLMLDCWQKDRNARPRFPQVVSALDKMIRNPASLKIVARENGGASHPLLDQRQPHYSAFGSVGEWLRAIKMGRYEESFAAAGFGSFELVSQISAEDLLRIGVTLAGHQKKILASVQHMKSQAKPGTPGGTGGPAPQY
Conditions: EPHB4; for % Enzyme Activity (relative to DMSO controls), Data 1: replicate Data 1; for % Enzyme Activity (relative to DMSO controls), Data 2: replicate Data 2.

In test [7] the target is T6, CK1d (Homo sapiens, UniProt P48730).
T6 construct: purchased ReactionBiology
T6 sequence (P48730 whole entry): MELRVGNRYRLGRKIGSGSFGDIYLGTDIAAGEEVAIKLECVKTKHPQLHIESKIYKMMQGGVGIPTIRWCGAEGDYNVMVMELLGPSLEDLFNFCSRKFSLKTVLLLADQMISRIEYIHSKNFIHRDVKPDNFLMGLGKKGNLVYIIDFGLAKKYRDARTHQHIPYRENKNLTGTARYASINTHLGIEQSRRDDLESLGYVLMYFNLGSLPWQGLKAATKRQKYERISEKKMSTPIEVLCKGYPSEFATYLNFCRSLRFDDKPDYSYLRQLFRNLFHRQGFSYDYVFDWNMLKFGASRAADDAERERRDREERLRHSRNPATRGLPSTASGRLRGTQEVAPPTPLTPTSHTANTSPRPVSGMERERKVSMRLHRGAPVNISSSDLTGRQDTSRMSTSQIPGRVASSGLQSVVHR
Conditions: CK1d; 1 uM; replicate Data 1.

[8] abbreviates: Average, read-out: % Enzyme Activity (relative to DMSO controls), Average.
[9] abbreviates: replicate Data 1, read-out: % Enzyme Activity (relative to DMSO controls), Data 1.
Where [10] appears, read: replicate Data 2, read-out: % Enzyme Activity (relative to DMSO controls), Data 2.
The mark [11] stands for this setting: 1 uM, Average, read-out: % Enzyme Activity (relative to DMSO controls), Average.
The mark [12] stands for this setting: 1 uM, replicate Data 1, read-out: % Enzyme Activity (relative to DMSO controls), Data 1.
Where [13] appears, read: 1 uM, replicate Data 2, read-out: % Enzyme Activity (relative to DMSO controls), Data 2.
[14] abbreviates: 10 uM, Average, read-out: % Enzyme Activity (relative to DMSO controls), Average.
Setting [15] is: 10 uM, replicate Data 1, read-out: % Enzyme Activity (relative to DMSO controls), Data 1.
Where [16] appears, read: 10 uM, replicate Data 2, read-out: % Enzyme Activity (relative to DMSO controls), Data 2.

Like-named read-outs stand apart in the source and are kept apart here.

VEGFR2, sequence (P35968 20-1356): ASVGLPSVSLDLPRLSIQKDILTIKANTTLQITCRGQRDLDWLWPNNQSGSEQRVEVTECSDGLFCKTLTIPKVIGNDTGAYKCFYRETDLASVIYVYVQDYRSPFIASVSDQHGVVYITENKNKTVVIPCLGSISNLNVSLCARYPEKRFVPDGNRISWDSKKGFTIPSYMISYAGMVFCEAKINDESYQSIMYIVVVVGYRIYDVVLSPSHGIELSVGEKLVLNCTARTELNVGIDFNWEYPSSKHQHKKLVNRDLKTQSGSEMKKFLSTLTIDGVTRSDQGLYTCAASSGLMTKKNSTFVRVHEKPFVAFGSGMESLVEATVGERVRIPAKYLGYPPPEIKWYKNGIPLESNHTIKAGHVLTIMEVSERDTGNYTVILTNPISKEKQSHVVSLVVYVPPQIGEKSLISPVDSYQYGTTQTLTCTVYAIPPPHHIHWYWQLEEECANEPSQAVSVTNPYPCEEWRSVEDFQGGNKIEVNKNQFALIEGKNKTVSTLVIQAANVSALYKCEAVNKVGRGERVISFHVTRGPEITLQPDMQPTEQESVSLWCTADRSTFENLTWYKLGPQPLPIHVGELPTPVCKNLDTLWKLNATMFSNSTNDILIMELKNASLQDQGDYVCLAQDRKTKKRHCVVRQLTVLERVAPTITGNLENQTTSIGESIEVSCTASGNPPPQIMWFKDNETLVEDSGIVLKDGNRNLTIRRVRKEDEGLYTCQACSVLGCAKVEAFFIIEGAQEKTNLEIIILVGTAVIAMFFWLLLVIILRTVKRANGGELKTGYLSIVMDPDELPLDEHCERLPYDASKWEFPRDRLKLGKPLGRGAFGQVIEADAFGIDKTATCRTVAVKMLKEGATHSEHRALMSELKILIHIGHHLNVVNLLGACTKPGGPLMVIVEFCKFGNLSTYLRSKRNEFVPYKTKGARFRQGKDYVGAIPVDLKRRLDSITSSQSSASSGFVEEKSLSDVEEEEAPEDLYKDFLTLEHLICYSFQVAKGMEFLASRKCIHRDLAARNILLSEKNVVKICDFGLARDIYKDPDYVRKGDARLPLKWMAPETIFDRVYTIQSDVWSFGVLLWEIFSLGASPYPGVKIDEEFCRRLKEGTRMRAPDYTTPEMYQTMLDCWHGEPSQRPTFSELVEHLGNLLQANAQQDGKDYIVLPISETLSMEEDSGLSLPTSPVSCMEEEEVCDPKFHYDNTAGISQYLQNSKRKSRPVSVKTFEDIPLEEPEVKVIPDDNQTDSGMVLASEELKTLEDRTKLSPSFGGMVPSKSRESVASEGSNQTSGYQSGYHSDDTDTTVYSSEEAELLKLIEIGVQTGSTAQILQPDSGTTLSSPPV
T4 sequence (P53355 whole entry): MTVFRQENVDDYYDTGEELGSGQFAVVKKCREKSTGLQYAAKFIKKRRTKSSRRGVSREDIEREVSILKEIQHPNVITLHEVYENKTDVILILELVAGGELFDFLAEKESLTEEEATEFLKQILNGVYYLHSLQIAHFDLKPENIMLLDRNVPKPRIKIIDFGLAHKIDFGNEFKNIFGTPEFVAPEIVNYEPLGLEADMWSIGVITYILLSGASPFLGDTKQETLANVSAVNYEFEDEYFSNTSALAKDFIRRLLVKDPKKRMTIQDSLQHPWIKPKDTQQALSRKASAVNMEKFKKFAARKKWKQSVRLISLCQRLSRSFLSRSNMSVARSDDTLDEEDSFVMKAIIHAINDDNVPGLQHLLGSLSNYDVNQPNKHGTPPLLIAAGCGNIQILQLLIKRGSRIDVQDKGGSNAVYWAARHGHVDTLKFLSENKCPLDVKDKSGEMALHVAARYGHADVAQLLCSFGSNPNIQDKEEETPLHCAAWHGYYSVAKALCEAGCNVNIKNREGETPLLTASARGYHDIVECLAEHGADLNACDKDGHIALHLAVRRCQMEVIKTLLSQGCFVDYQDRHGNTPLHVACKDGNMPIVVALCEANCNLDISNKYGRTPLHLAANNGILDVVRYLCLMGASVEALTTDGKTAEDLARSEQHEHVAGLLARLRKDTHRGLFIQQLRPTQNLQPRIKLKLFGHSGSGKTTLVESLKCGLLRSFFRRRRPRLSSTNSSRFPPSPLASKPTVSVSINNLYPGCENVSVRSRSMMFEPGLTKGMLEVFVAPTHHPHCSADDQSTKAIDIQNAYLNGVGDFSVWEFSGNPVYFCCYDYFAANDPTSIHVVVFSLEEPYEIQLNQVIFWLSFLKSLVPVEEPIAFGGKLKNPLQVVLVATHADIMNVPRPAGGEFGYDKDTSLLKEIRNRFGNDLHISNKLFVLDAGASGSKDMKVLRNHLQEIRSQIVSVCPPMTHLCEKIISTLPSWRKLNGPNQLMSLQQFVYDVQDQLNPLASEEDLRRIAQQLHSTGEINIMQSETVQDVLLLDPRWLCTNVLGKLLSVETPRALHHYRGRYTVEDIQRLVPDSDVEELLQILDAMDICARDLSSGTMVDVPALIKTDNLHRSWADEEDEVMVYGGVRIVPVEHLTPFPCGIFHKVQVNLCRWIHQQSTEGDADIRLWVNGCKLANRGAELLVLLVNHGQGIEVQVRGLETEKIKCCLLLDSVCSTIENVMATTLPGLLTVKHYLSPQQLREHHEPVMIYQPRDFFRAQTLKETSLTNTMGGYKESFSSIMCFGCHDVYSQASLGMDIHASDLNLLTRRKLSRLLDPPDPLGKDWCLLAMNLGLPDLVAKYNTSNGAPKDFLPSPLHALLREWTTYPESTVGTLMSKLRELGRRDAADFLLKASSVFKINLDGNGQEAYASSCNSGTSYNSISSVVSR
T1 sequence (P36507 whole entry): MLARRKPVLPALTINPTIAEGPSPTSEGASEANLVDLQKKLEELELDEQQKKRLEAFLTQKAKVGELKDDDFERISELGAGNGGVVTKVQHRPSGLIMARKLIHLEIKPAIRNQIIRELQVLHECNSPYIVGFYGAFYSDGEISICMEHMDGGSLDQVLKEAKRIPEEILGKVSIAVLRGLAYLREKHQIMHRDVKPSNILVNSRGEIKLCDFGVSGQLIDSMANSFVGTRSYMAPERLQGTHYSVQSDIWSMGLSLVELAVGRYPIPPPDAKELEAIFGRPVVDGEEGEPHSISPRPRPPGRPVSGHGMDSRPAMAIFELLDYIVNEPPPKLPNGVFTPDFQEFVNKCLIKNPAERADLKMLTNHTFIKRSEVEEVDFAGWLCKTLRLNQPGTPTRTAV

As for `CN(C)CCCN1c2ccccc2Sc2ccc(Cl)cc21` [Chlorpromazine], the “% Enzyme Activity (relative to DMSO controls), Average” value in test [1] (1 uM, Average) is recorded as 105.46%; in test [1] (10 uM, Average) it was 105.67%; in test [2] (1 uM, Average), 103.60%; in test [2] (10 uM, Average), 101.38%. The “% Enzyme Activity (relative to DMSO controls), Data 1” value in test [1] (1 uM, replicate Data 1) amounted to 101.88%; in test [1] (10 uM, replicate Data 1), 105.24%; in test [2] (1 uM, replicate Data 1), 103.14%; in test [2] (10 uM, replicate Data 1), 102.43%. Besides, the “% Enzyme Activity (relative to DMSO controls), Data 2” value was 109.04% in test [1] (1 uM, replicate Data 2); 106.1% in test [1] (10 uM, replicate Data 2); 104.05% in test [2] (1 uM, replicate Data 2); 100.33% in test [2] (10 uM, replicate Data 2).
Take `N[C@@H](CC(=O)N1CCn2c(nnc2C(F)(F)F)C1)Cc1cc(F)c(F)cc1F` [Sitagliptin]: the remaining activity at 1 µM in test [3] (setting [8]) came out at 92.4%; in test [3] (setting [9]) it was 89.3%; in test [3] (setting [10]) it was 95.5%; in test [1] (setting [11]), 97.9%; in test [1] (setting [12]), 100%; in test [1] (setting [13]), 95.6%. The values for the remaining activity at 1 µM in test [2] (setting [11]), in test [2] (setting [12]) and in test [2] (setting [13]) were 100%, 101% and 99.3%, respectively. Besides, the remaining activity at 10 µM in test [3] (setting [8]) was 86.5%; in test [3] (setting [9]), 82.7%; in test [3] (setting [10]), 90.3%; in test [1] (setting [14]), 99.7%; in test [1] (setting [15]) it was 99.4%; in test [1] (setting [16]), 100%. The remaining activity at 10 µM in test [2] (setting [14]) turned out to be 94.3%; in test [2] (setting [15]), 96.2%; in test [2] (setting [16]), 92.4%.
Regarding `CC(C)C[C@H](NC(=O)[C@H](Cc1ccccc1)NC(=O)c1cnccn1)B(O)O` [Bortezomib], the “% Enzyme Activity (relative to DMSO controls), Average” value in test [4] (1 uM) worked out at 74.98%; in test [4] (10 uM), 84.55%; in test [5] (1 uM), 99.82%; in test [5] (10 uM), 92.04%. The “% Enzyme Activity (relative to DMSO controls), Data 1” value in test [4] (1 uM) was determined as 77.59%; in test [4] (10 uM), 84.43%; in test [5] (1 uM), 95.51%; in test [5] (10 uM), 94.13%. Further, the “% Enzyme Activity (relative to DMSO controls), Data 2” value worked out at 72.36% in test [4] (1 uM), 84.67% in test [4] (10 uM), 104.12% in test [5] (1 uM) and 89.94% in test [5] (10 uM).
`C[C@]12CCC(=O)C=C1CC[C@@H]1[C@@H]2[C@@H](O)C[C@@]2(C)[C@H]1CC[C@]2(O)C(=O)CO` [Hydrocortisone]: the “% Enzyme Activity (relative to DMSO controls), Average” value was found to be 74.38% in test [4] (1 uM); 75.76% in test [4] (10 uM); 99.23% in test [1] (1 uM, Average); 102.28% in test [1] (10 uM, Average); 102.86% in test [6] (1 uM); 91.65% in test [6] (10 uM). Moreover, the “% Enzyme Activity (relative to DMSO controls), Average” value in test [5] (1 uM) is on record as 114.18%; in test [5] (10 uM), 104.62%. Further, the “% Enzyme Activity (relative to DMSO controls), Data 1” value in test [4] (1 uM) is on record as 77.32%; in test [4] (10 uM) it was 77.92%; in test [1] (1 uM, replicate Data 1) it was 98.18%; in test [1] (10 uM, replicate Data 1) it was 99.63%; in test [6] (1 uM) it was 105.83%; in test [6] (10 uM), 91.79%. The figures for the “% Enzyme Activity (relative to DMSO controls), Data 1” value in test [5] (1 uM) and in test [5] (10 uM) were 116.14% and 110.58%, respectively. Besides, the “% Enzyme Activity (relative to DMSO controls), Data 2” value in test [4] (1 uM) is reported as 71.43%; in test [4] (10 uM), 73.60%; in test [1] (1 uM, replicate Data 2), 100.27%; in test [1] (10 uM, replicate Data 2), 104.92%; in test [6] (1 uM), 99.88%; in test [6] (10 uM), 91.51%. Besides, the “% Enzyme Activity (relative to DMSO controls), Data 2” value in test [5] (1 uM) was 112.22%; in test [5] (10 uM), 98.66%.
On to `CC(=O)Nc1ccc(O)cc1` [Acetaminophen], for which the “% Enzyme Activity (relative to DMSO controls), Data 1” value in test [4] (1 uM) is 78.79%; in test [4] (10 uM) it was 85.04%; in test [7] it was 106.63%; in test [6] (1 uM), 95.30%; in test [6] (10 uM), 99.39%; in test [5] (1 uM), 112.11%. The “% Enzyme Activity (relative to DMSO controls), Data 1” value in test [5] (10 uM) is on record as 98.16%.
